Measurements reported in publication PMC6334511, “Biochemical characterization of the minimal domains of an iterative eukaryotic polyketide synthase” (The Febs Journal, 2018).

System: ApPKS KS-AT didomain
Experiment: alpha-ketoglutarate dehydrogenase coupled NADH fluorescence
Type: biochemical, Anas platyrhynchos
Details: transacylation to ACP1 (AT site), corrected for ACP1 self-acylation; 50 mM sodium phosphate pH 7.6, 10% glycerol, 1 mM TCEP, 1 mM EDTA; read-out: Km (apparent)

Structure (SMILES)	Km [µM]
CC(C(=O)O)C(=O)SCCNC(=O)CCNC(=O)[C@H](O)C(C)(C)COP(=O)(O)OP(=O)(O)OC[C@H]1O[C@@H](n2cnc3c(N)ncnc32)[C@H](O)[C@@H]1OP(=O)(O)O (stereo partly shown) [methylmalonyl-CoA]	245 ± 37.7
CC(=O)SCCNC(=O)CCNC(=O)[C@H](O)C(C)(C)COP(=O)(O)OP(=O)(O)OC[C@H]1O[C@@H](n2cnc3c(N)ncnc32)[C@H](O)[C@@H]1OP(=O)(O)O [acetyl-CoA]	8.97 ± 1.53
CC(C)(COP(=O)(O)OP(=O)(O)OC[C@H]1O[C@@H](n2cnc3c(N)ncnc32)[C@H](O)[C@@H]1OP(=O)(O)O)[C@@H](O)C(=O)NCCC(=O)NCCSC(=O)CC(=O)O [malonyl-CoA]	7.4 ± 0.97
CCC(=O)SCCNC(=O)CCNC(=O)[C@H](O)C(C)(C)COP(=O)(O)OP(=O)(O)OC[C@H]1O[C@@H](n2cnc3c(N)ncnc32)[C@H](O)[C@@H]1OP(=O)(O)O [propionyl-CoA]	12.2 ± 3.03
